Assay results reported in patent US20240299484A1, “DILEUCINE COMPOSITIONS AND METHODS OF USE THEREOF” (Ingenious Ingredients, LP, priority 2023, published 2024).
Marks after values point to notes of the source that are not given here.

System: TH2
Assay: Immune health biomarkers (T helper subsets): TH2
Format: in vivo, Swiss Albino mice
Conditions: T helper subset in blood after 28 days, mice, n = 8
Method: (§1) PMI Nutrition International, Brentwood, MO, USA). Distilled water was provided ad libitum. All animal experiments were reviewed and approved by the Institutional Animal Ethical Committee (IAEC) of Radiant Research Services Pvt. Ltd (Bangalore, India). All research was conducted in accordance with the guidelines of the committee for the purpose of control and supervision of experiments on animals (CPCSEA Registration Number-1803/PO/[…]). […] (1) vehicle control; […] (4) paraxanthine+dileucine; […] The dose administered to the mice was calculated using US Food and Drug Administration for human equivalence doses (HED), assuming a human weight of 60 kg. […] Dosing was conducted via oral gavage using disposable polypropylene syringes with sterilized stainless steel gavage tubes. The food intake and water consumption were monitored daily, and BW was recorded weekly. The last dose on day 28 was given 1 hour prior to testing. Serum and plasma samples were separated by centrifuging the blood at 8000 rpm for 10 mins and analyze the below mentioned biomarkers, Biomarkers: TC, TG, LDL and HDL, CRP, Serum lactate, Ammonia, Glucose, NO, IL-2, IL-6, IL-10. Blood was collected in EDTA tubes for below mentioned biomarkers, Immune health Biomarkers (T helper subsets): […]

Row | Structure (SMILES) | TH2(%)
1 | NC(=O)NCCC[C@H](N)C(=O)O [L-Citrulline, L-citrulline] | 38.23*** %

Same assay, conditions: vs Exercise Control, 28 days

Row | Structure (SMILES) | TH2 Change over control [%]
2 | NC(=O)NCCC[C@H](N)C(=O)O [L-Citrulline, L-citrulline] | 234

System: TH17
Assay: Immune health biomarkers (T helper subsets): TH17
Format: in vivo, Swiss Albino mice
Conditions: T helper subset in blood after 28 days, mice, n = 8
Method: as §1

Row | Structure (SMILES) | TH17(%)
3 | NC(=O)NCCC[C@H](N)C(=O)O [L-Citrulline, L-citrulline] | 25.89*** %

Same assay, conditions: vs Exercise Control, 28 days

Row | Structure (SMILES) | TH17 Change over control [%]
4 | NC(=O)NCCC[C@H](N)C(=O)O [L-Citrulline, L-citrulline] | 609

System: low-density lipids (LDL)
Assay: Blood lipids: LDL
Format: in vivo, Swiss Albino mice
Conditions: after 28 days of supplementation, mice, n = 8
Method: (§2) Eight 8-week-old male Swiss Albino mice per experimental group were housed in an animal room at a constant temperature (22±3° C.) and humidity (30%-70%) under a 12:12 h light-dark cycle with standard laboratory diet (Purina 5L79, Rat and Mouse 18% protein; PMI Nutrition International, Brentwood, MO, USA). Distilled water was provided ad libitum. All animal experiments were reviewed and approved by the Institutional Animal Ethical Committee (IAEC) of Radiant Research Services Pvt. Ltd (Bangalore, India). All research was conducted in accordance with the guidelines of the committee for the purpose of control and supervision of experiments on animals (CPCSEA Registration Number-1803/PO/RcBi/S/2015/CPCSEA).
(§3) After one week of acclimation, the animals were randomly divided by body weight into different groups (n=8 per group in each test) for oral treatment once a day, at approximately same time each day (+1 hour), for 28 consecutive days: (1) vehicle control; (2) paraxanthine (3) dileucine; (4) paraxanthine+dileucine; (5) L-arginine; (6) L-arginine+dileucine; (7) L-citrulline; and (8) L-citrulline+dileucine. The dose administered to the mice was calculated using US Food and Drug Administration for human equivalence doses (HED), assuming a human weight of 60 kg. The following HED were used in this study: 2,000 mg dileucine (RAMPS™, Ingenious Ingredients, L.P., Lewisville, TX, USA; mouse 411 mg/kg bw), 100 mg paraxanthine, (ENFINITY™, Ingenious Ingredients, L.P Lewisville, TX, USA; mouse dose: 20.5 mg/kg bw/day); 3,000 mg L-arginine (Nanjing Nutrabuilding Bio-tech Co., LTD., No. 270 Jiqingmen Strect, Suning Huigu, Building E6, Room 2105, Nanjing, China 210017; mouse 616.55 mg/kg bw), 3,000 mg L-citrulline (Nanjing Nutrabuilding Bio-tech Co., LTD., No. 270 Jiqingmen Street, Suning Huigu, Building E6, Room 2105, Nanjing, China 210017; mouse 616.55 mg/kg bw). 0.5% Carboxy Methyl Cellulose sodium was used as vehicle and the test item formulations were prepared daily. Dosing was conducted via oral gavage using disposable polypropylene syringes with sterilized stainless steel gavage tubes. The food intake and water consumption were monitored daily, and BW was recorded weekly. The last dose on day 28 was given 1 hour prior to testing.
(§4) All animals were euthanized by 95% CO2 after 28 days of following their assigned treatment. Blood was collected immediately after euthanization by the retro-orbital route and was immediately centrifuged at 1500×g for 10 min at 4° C. before having all serum transferred into cryogenic tubes and stored at −80° C.
(§5) Serum and plasma samples were separated by centrifuging the blood at 8000 rpm for 10 mins and analyze the below mentioned biomarkers, Biomarkers: TC, TG, LDL and HDL, CRP, Serum lactate, Ammonia, Glucose, NO, IL-2, IL-6, IL-10. Blood was collected in EDTA tubes for below mentioned biomarkers, Immune health Biomarkers (T helper subsets): TH1, TH2, TH17, Tfh, iTreg.

Row | Structure (SMILES) | LDL [mg/dL]
5 | NC(=O)NCCC[C@H](N)C(=O)O [L-Citrulline, L-citrulline] | 44.01

Same assay, conditions: vs Exercise Control, 28 days

Row | Structure (SMILES) | LDL Change over control [%]
6 | NC(=O)NCCC[C@H](N)C(=O)O [L-Citrulline, L-citrulline] | 1

System: IL-2
Assay: Inflammatory markers: IL-2
Format: in vivo, Swiss Albino mice
Conditions: after 28 days of supplementation and exercise, mice, n = 8
Method: as §2, §3, §4, §5

Row | Structure (SMILES) | IL-2 (ng/L)
7 | NC(=O)NCCC[C@H](N)C(=O)O [L-Citrulline, L-citrulline] | 42.8*** ng/L

Same assay, conditions: vs Exercise Control, 28 days

Row | Structure (SMILES) | IL-2 Change over control [%]
8 | NC(=O)NCCC[C@H](N)C(=O)O [L-Citrulline, L-citrulline] | 25

System: IL-6
Assay: Inflammatory markers: IL-6
Format: in vivo, Swiss Albino mice
Conditions: after 28 days of supplementation and exercise, mice, n = 8
Method: as §2, §3, §4, §5

Row | Structure (SMILES) | IL-6 [pg/mL]
9 | NC(=O)NCCC[C@H](N)C(=O)O [L-Citrulline, L-citrulline] | 349.52

Same assay, conditions: vs Exercise Control, 28 days

Row | Structure (SMILES) | IL-6 Change over control [%]
10 | NC(=O)NCCC[C@H](N)C(=O)O [L-Citrulline, L-citrulline] | −7

System: Tfh
Assay: Immune health biomarkers (T helper subsets): Tfh
Format: in vivo, Swiss Albino mice
Conditions: T helper subset in blood after 28 days, mice, n = 8
Method: as §2, §3, §5

Row | Structure (SMILES) | Tfh(%) (mg/L)
11 | NC(=O)NCCC[C@H](N)C(=O)O [L-Citrulline, L-citrulline] | 40.87*** %

Same assay, conditions: vs Exercise Control, 28 days

Row | Structure (SMILES) | Tfh Change over control [%]
12 | NC(=O)NCCC[C@H](N)C(=O)O [L-Citrulline, L-citrulline] | 423

System: IL-10
Assay: Inflammatory markers: IL-10
Format: in vivo, Swiss Albino mice
Conditions: after 28 days of supplementation and exercise, mice, n = 8
Method: as §2, §3, §4, §5

Row | Structure (SMILES) | IL-10 (pg/ml)
13 | NC(=O)NCCC[C@H](N)C(=O)O [L-Citrulline, L-citrulline] | 559.63** pg/ml

Same assay, conditions: vs Exercise Control, 28 days

Row | Structure (SMILES) | IL-10 Change over control [%]
14 | NC(=O)NCCC[C@H](N)C(=O)O [L-Citrulline, L-citrulline] | 4

System: not listed separately
Assay: Effect on body weight, 28-day oral supplementation with exercise
Format: in vivo, Swiss Albino mice
Conditions: Day −0 (baseline), mice, n = 8
Method: as §2, §3
Individual body weights were recorded at receipt, on the day of randomization, on the first day of treatment before dosing (Day 1) and weekly thereafter. The body weight changes for all the animals were calculated and reported along with the body weight data.

Row | Structure (SMILES) | Body Weight (grams) Day −0 [grams]
15 | NC(=O)NCCC[C@H](N)C(=O)O [L-Citrulline, L-citrulline] | 22.49

Same assay, conditions: Day −0 to Day −28, oral once a day

Row | Structure (SMILES) | Weight gain in grams [grams]
16 | NC(=O)NCCC[C@H](N)C(=O)O [L-Citrulline, L-citrulline] | 9.83

Same assay, conditions: Day −28, oral once a day for 28 days, mice, n = 8

Row | Structure (SMILES) | Body Weight (grams) Day −28
17 | NC(=O)NCCC[C@H](N)C(=O)O [L-Citrulline, L-citrulline] | 33.01* grams

Same assay, conditions: weight gain vs Exercise Control, 28 days

Row | Structure (SMILES) | Percentage weight loss over control [%]
18 | NC(=O)NCCC[C@H](N)C(=O)O [L-Citrulline, L-citrulline] | −9

System: not listed separately
Assay: Forelimb grip strength test
Format: in vivo, Swiss Albino mice
Conditions: Day −0 (baseline), mice, n = 8
Method: as §2, §3
The forelimb grip strength was measured on day 0 and day 28 by using a stainless-steel grill to assess muscle strength (Orchid Scientific & Innovative India Pvt Ltd, India). Grip strength was measured one hour after treatment. Briefly, each mouse was placed on a grill chamber and the steel bar is inverted; grip strength is measured by recording the time each animal holds the steel bar. The maximum time for each trial was six minutes. Each animal performed three independent trials separated by six minutes intervals and the mean of the three trials was calculated.

Row | Structure (SMILES) | Forelimb grip strength (gf) Day −0 [gf]
19 | NC(=O)NCCC[C@H](N)C(=O)O [L-Citrulline, L-citrulline] | 97.63

Same assay, conditions: Day −28, one hour after treatment, oral once a day for 28 days

Row | Structure (SMILES) | Forelimb grip strength (gf) Day −28
20 | NC(=O)NCCC[C@H](N)C(=O)O [L-Citrulline, L-citrulline] | 138.5*** gf

Same assay, conditions: Day −28 minus Day −0

Row | Structure (SMILES) | Increase strength over Day −0 [gf]
21 | NC(=O)NCCC[C@H](N)C(=O)O [L-Citrulline, L-citrulline] | 40.87

Same assay, conditions: increase vs Exercise Control, 28 days

Row | Structure (SMILES) | Percentage Increase over control (grip strength) [%]
22 | NC(=O)NCCC[C@H](N)C(=O)O [L-Citrulline, L-citrulline] | 45

System: C-reactive protein (CRP)
Assay: Inflammatory markers: CRP
Format: in vivo, Swiss Albino mice
Conditions: after 28 days of supplementation and exercise, mice, n = 8
Method: as §2, §3, §4, §5

Row | Structure (SMILES) | CRP (mg/L)
23 | NC(=O)NCCC[C@H](N)C(=O)O [L-Citrulline, L-citrulline] | 0.69*** mg/L

Same assay, conditions: vs Exercise Control, 28 days

Row | Structure (SMILES) | CRP Change over control [%]
24 | NC(=O)NCCC[C@H](N)C(=O)O [L-Citrulline, L-citrulline] | −16

System: nitric oxide
Assay: NO signaling: nitric oxide level
Format: in vivo, Swiss Albino mice
Conditions: after 28 days of supplementation and exercise, mice, n = 8
Method: as §2, §3, §4, §5

Row | Structure (SMILES) | Nitric oxide (μmol/L) (mg/L) [µmol/L]
25 | NC(=O)NCCC[C@H](N)C(=O)O [L-Citrulline, L-citrulline] | 77.61

Same assay, conditions: vs Exercise Control, 28 days

Row | Structure (SMILES) | Nitric oxide Change over control [%]
26 | NC(=O)NCCC[C@H](N)C(=O)O [L-Citrulline, L-citrulline] | 28

System: high-density lipids (HDL)
Assay: Blood lipids: HDL
Format: in vivo, Swiss Albino mice
Conditions: after 28 days of supplementation, mice, n = 8
Method: as §2, §3, §4, §5

Row | Structure (SMILES) | HDL [mg/dL]
27 | NC(=O)NCCC[C@H](N)C(=O)O [L-Citrulline, L-citrulline] | 35.63

Same assay, conditions: vs Exercise Control, 28 days

Row | Structure (SMILES) | HDL Change over control [%]
28 | NC(=O)NCCC[C@H](N)C(=O)O [L-Citrulline, L-citrulline] | 4
